Legend:
[1] = biological target: T1, α-glucosidase (Sigma G0660) (Saccharomyces cerevisiae, UniProt P53341); assay: Kinetic study of α-glucosidase inhibition (Michaelis-Menten, pNPG); format: biochemical, yeast
T1 construct: purchased Sigma G0660
Protocol: The method’s principle based on the hydrolyzed reaction of 4-nitrophenyl-α-D-glucopiranoside with α-glucosidase enzyme into yellow 4- […]
The kinetic assay was performed according to the method using a series of […]
μL of 100 mM phosphate buffer (pH 6.8), 25 μL of α-glucosidase (0.4 U/mL, Sigma G0660) were pre-incubated for 10 min at 37 °C. DMSO was added to the respective control wells to a 0.64% final concentration. The reaction was initiated with the addition of 25 μL of p-nitrophenyl-[…] (pNPG, Sigma N1377) solution in a range of final concentrations. The amount of released p-nitrophenol from pNPG was immediately measured at 410 nm with Infinite M200 PRO (Tecan, Austria). Conversion of optical density to nM p-nitrophenol was performed with a standard curve. Reaction rates were determined from the linear parts of kinetic curves and fitted to the Michaelis-Menten equation. The assay was performed in triplicate wells and two independent […]
Ligands were prepared with MarvinSketch 18.8.0 (ChemAxon Ltd.). Ligands were hydrogenized and conformations with minimal potential energy were obtained using the MMFF94 force field. The homology model of S. cerevisiae α-glucosidase was obtained with SWISS-MODEL as described previously. Protein and ligand structures followed standard preparation procedure using AutoDocTools 1.5.6. We used AutoDock Vina 1.1.211 to perform all docking runs. The grid box with 70×80×80 Å dimensions was centered on the enzyme molecule to include the entire 3D space around the protein. The top-score binding poses were used in subsequent analysis. […]
(Dassault Systemes Biovia Corp.).
DPPH (0.1 mM) was diluted in methanol. 200 μL of this solution was added to 1.3 μL of various concentrations of compounds in DMSO (256.0, 64.0, 16.0, and 4.0 μg/mL). The mixture was performed by a 96-well plate at 25 °C in 30 min. […]

[2] = DPPH radical scavenging assay; settings: DPPH 0.1 mM in methanol, 25°C, 30 min
Protocol: DPPH radical scavenging assay as described by Ha. The hydrogen atom donating ability of the plant extractives was determined by the decolorization of methanol solution of 2,2-diphenyl-1-picrylhydrazyl (DPPH). DPPH produces purple color in methanol solution and fades to shades of yellow color in the presence of antioxidants. […]
DPPH (0.1 mM) was diluted in methanol. 200 μL of this solution was added to 1.3 μL of various concentrations of compounds in DMSO (256.0, 64.0, 16.0, and 4.0 μg/mL). The mixture was performed by a 96-well plate at 25 °C in 30 min. Then, absorbance was determined by Epoch™ Microplate Spectrophotometer (at 517 nm). The percentage of DPPH quenching activity was computed by the following formula:
Inhibitory percentage SC (%) = [(Ao - A1)/Ao] × 100. where AO was defined as the absorbance of control reaction, and A1 represented for the absorbance in the presence of test or standard sample. Each experiment was repeated three times. Quercetin was used as a reference compound. […]

[3] = tested on: Bacillus subtilis (ATCC 6633); assay: Antimicrobial broth microdilution; format: cell-based; settings: ATCC6633, B. subtilis
Protocol: (§1) Table S2. The result of antimicrobial tests of compounds 38, 45, 48 and 50.
(§2) Gram (+) strains Gram (-) strains Fungi
(§3) Compound Values (µg/ml) S. aureus B. L. S. E. P. C. subtilis fermentum enterica coli aeruginosa albican
(§4) The antimicrobial activity was determined by broth microdilution method as reported by. Broth dilution testing is one of the common methods used for determination of the MICs and IC50. The compounds are examined for visible bacterial growth as evidenced by turbidity. […]
(§5) S1.5. In vitro antimicrobial activity study of compounds 38, 45, 48 and 50 The Gram-positive bacteria: Bacillus subtilis (ATCC 6633), Lactobacillus fermentum (N4), Staphylococcus aureus (ATCC 13709); Gram -negative bacteria: Escherichia coli (ATCC 25922), Pseudomonas aeruginosa (ATCC 15442), Salmonella enterica; Yeast: Candida albicans (ATCC 10231) were obtained from American Type Culture Collection. The bacterial […]
(§6) Sabourand 2% dextrose broth, were purchased from Merck. […]
(§7) remaining at –80 0 C. Before assay, they were activated by culture medium and, adjusted the concentration to 5x10^5 CFU/mL. 10 μL of each concentration of each test […]
(§8) further incubated at 37 °C within 16-24h. The experiment was triplicated. Positive […]
(§9) medium without bacteria as a negative control. Ampicillin was used as a reference […]
(§10) inhibiting 50% the visible growth of the tested microorganisms. MIC, IC50 values are typically expressed as molar concentration. […]
(§11) treated with sample different concentrations on 96-well plates. Untreated cells represented the controls. […]
(§12) crystals are visible. Remove MTT and add DMSO solution (100 μL). The optical density […]
(§13) are evaluated to have cytotoxic activity.

[4] = tested on: Candida albicans (ATCC 10231); assay: Antimicrobial broth microdilution; format: cell-based; settings: ATCC10231, C. albican
Protocol: as §1, §2, §3, §4, §5, §6, §7, §8, §9, §10, §11, §12, §13

[5] = tested on: Escherichia coli (ATCC 25922); assay: Antimicrobial broth microdilution; format: cell-based; settings: ATCC25922, E. coli
Protocol: as §1, §2, §3, §4, §5, §6, §7, §8, §9, §10, §11, §12, §13

[6] = tested on: Lactobacillus fermentum (N4); assay: Antimicrobial broth microdilution; format: cell-based; settings: L. fermentum
Protocol: as §1, §2, §3, §4, §5, §6, §7, §8, §9, §10, §11, §12, §13

[7] = tested on: Pseudomonas aeruginosa (ATCC 15442); assay: Antimicrobial broth microdilution; format: cell-based; settings: ATCC15442, P. aeruginosa
Protocol: as §1, §2, §3, §4, §5, §6, §7, §8, §9, §10, §11, §12, §13

Salmonella enterica = assay: Antimicrobial broth microdilution; format: cell-based; settings: S. enterica
Protocol: as §1, §2, §3, §4, §5, §6, §7, §8, §9, §10, §11, §12, §13

[8] = tested on: Staphylococcus aureus (ATCC 13709); assay: Antimicrobial broth microdilution; format: cell-based; settings: ATCC13709, S. aureus
Protocol: as §1, §2, §3, §4, §5, §6, §7, §8, §9, §10, §11, §12, §13

T1 sequence (P53341 whole entry): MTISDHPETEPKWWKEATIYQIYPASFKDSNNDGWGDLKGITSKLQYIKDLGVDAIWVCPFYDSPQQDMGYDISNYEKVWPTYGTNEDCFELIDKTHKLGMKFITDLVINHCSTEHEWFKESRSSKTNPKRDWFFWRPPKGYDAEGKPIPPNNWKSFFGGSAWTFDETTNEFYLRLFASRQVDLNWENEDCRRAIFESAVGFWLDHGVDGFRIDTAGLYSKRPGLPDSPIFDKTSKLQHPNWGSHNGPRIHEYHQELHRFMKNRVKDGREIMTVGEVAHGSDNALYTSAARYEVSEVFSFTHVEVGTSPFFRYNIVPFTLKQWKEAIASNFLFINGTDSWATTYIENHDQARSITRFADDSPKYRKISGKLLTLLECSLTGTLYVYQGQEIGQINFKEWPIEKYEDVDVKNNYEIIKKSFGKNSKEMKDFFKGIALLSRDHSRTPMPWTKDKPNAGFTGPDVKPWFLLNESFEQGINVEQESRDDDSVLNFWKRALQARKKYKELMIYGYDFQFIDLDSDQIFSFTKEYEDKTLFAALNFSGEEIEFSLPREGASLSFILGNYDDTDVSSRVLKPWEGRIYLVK

C#CCOC(=O)C1(C)CCCC2(C)C1CCC13C=C(C(C)C)C(CC12)c1c(O)cc2c(C(=O)OC)c(C)[nH]c2c13 (stereo not shown) [Compound 45, Methyl 7-propynyl 1-hydroxy-13-isopropyl-7,10a,2′-trimethyl-5,6,6b,7,8,9,10,10a,10b,11,12,13-dodecahydro-12,4b-ethenophenanthro [2,1-g]indole-7,1′-dicarboxylate]
competitive inhibitor: mechanism of α-glucosidase inhibition ([1]; Michaelis-Menten nonlinear regression)
2.277 nM/min: Vmax ([1]; Compound 45 at 25 μM)
> 256 µg/mL: IC50 values, antioxidant test (DPPH) [2] | IC50 [3] | MIC [3] | IC50 [4] | MIC [4] | IC50 [5] | MIC [5] | IC50 [6] | MIC [6] | IC50 [7] | MIC [7] | IC50 (Salmonella enterica) | MIC (Salmonella enterica) | IC50 [8] | MIC [8]
2.221 nM/min: Vmax ([1]; Compound 45 at 50 μM)
2.249 nM/min: Vmax ([1]; Compound 45 at 100 μM)
